Measured values published in PubChem BioAssay (NCI).
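Where inhibition never reached the appropriate level, the endpoint shown equals the highest concentration tested. Otherwise, values were interpolated linearly from a five-concentration, 48-hour dose response in 96-well plates. GI50: concentration for 50% inhibition of growth. Definition used: TGI = concentration required for complete inhibition of growth.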

Key:
Experiment in all cases: NCI anticancer screen, dose series, 48 h
RPMI-8226 leukemia = tested on: RPMI-8226 leukemia
COLO 205 colon = tested on: COLO 205 colon
SK-OV-3 ovarian = tested on: SK-OV-3 ovarian
SNB-75 CNS = tested on: SNB-75 CNS
MOLT-4 leukemia = tested on: MOLT-4 leukemia
OVCAR-3 ovarian = tested on: OVCAR-3 ovarian
U251 CNS = tested on: U251 CNS
UACC-257 melanoma = tested on: UACC-257 melanoma
SF-268 CNS = tested on: SF-268 CNS
NCI-H460 lung = tested on: NCI-H460 lung
OVCAR-5 ovarian = tested on: OVCAR-5 ovarian
T-47D breast = tested on: T-47D breast
A498 renal = tested on: A498 renal
LOX IMVI melanoma = tested on: LOX IMVI melanoma
OVCAR-4 ovarian = tested on: OVCAR-4 ovarian
SR leukemia = tested on: SR leukemia
MALME-3M melanoma = tested on: MALME-3M melanoma
HCC-2998 colon = tested on: HCC-2998 colon
NCI/ADR-RES ovarian = tested on: NCI/ADR-RES ovarian
IGROV1 ovarian = tested on: IGROV1 ovarian
SF-539 CNS = tested on: SF-539 CNS
SW-620 colon = tested on: SW-620 colon
UACC-62 melanoma = tested on: UACC-62 melanoma
ACHN renal = tested on: ACHN renal
HL-60(TB) leukemia = tested on: HL-60(TB) leukemia
HS 578T breast = tested on: HS 578T breast
DU-145 prostate = tested on: DU-145 prostate
OVCAR-8 ovarian = tested on: OVCAR-8 ovarian
MDA-MB-231 breast = tested on: MDA-MB-231 breast
BT-549 breast = tested on: BT-549 breast
SK-MEL-28 melanoma = tested on: SK-MEL-28 melanoma
KM12 colon = tested on: KM12 colon
HOP-92 NSCLC = tested on: HOP-92 NSCLC
SF-295 CNS = tested on: SF-295 CNS
A549 NSCLC = tested on: A549 NSCLC
HOP-62 NSCLC = tested on: HOP-62 NSCLC
TK-10 renal = tested on: TK-10 renal
SK-MEL-2 melanoma = tested on: SK-MEL-2 melanoma
MDA-MB-435 = tested on: MDA-MB-435
K-562 leukemia = tested on: K-562 leukemia
NCI-H226 lung = tested on: NCI-H226 lung
EKVX NSCLC = tested on: EKVX NSCLC
RXF 393 renal = tested on: RXF 393 renal
HCT-15 colon = tested on: HCT-15 colon
SK-MEL-5 melanoma = tested on: SK-MEL-5 melanoma
SN12C renal = tested on: SN12C renal
CCRF-CEM leukemia = tested on: CCRF-CEM leukemia
CAKI-1 renal = tested on: CAKI-1 renal
MCF7 breast = tested on: MCF7 breast
NCI-H522 lung = tested on: NCI-H522 lung
SNB-19 CNS = tested on: SNB-19 CNS
PC-3 prostate = tested on: PC-3 prostate

Q: Which GI50 (RPMI-8226 leukemia) does the source give for `COc1cccc(CNCCN2C(=O)c3ccc4c5c(ccc(c35)C2=O)C(=O)N(CCNCc2cccc(OC)c2)C4=O)c1` here?
A: 2.84 µM

Q: And the TGI (RPMI-8226 leukemia)?
A: 7.45 µM

Q: What about the GI50 (COLO 205 colon) of the same compound?
A: 1.53 µM

Q: And the TGI (COLO 205 colon)?
A: 2.95 µM

Q: What about the GI50 (SK-OV-3 ovarian) of the same compound?
A: 19.1 µM

Q: What about the TGI (SK-OV-3 ovarian) of the same compound?
A: 35.5 µM

Q: What about the GI50 (SNB-75 CNS) of the same compound?
A: 11.2 µM

Q: And the TGI (SNB-75 CNS)?
A: 28 µM

Q: What about the GI50 (MOLT-4 leukemia) of the same compound?
A: 14.7 µM

Q: What about the TGI (MOLT-4 leukemia) of the same compound?
A: 47.9 µM

Q: What about the GI50 (OVCAR-3 ovarian) of the same compound?
A: 2.25 µM

Q: And the TGI (OVCAR-3 ovarian)?
A: 5.93 µM

Q: What about the GI50 (U251 CNS) of the same compound?
A: 2.42 µM

Q: What about the TGI (U251 CNS) of the same compound?
A: 5.16 µM

Q: And the GI50 (UACC-257 melanoma)?
A: 2.09 µM

Q: What about the TGI (UACC-257 melanoma) of the same compound?
A: 3.82 µM

Q: And the GI50 (SF-268 CNS)?
A: 4.09 µM

Q: And the TGI (SF-268 CNS)?
A: 27 µM

Q: And the GI50 (NCI-H460 lung)?
A: 1.96 µM

Q: And the TGI (NCI-H460 lung)?
A: 4.33 µM

Q: What about the GI50 (OVCAR-5 ovarian) of the same compound?
A: 21.1 µM

Q: And the TGI (OVCAR-5 ovarian)?
A: 49.6 µM

Q: What about the GI50 (T-47D breast) of the same compound?
A: 2.05 µM

Q: What about the TGI (T-47D breast) of the same compound?
A: 5.3 µM

Q: What about the GI50 (A498 renal) of the same compound?
A: 14.8 µM

Q: What about the TGI (A498 renal) of the same compound?
A: 28.9 µM

Q: And the GI50 (LOX IMVI melanoma)?
A: 1.79 µM

Q: What about the TGI (LOX IMVI melanoma) of the same compound?
A: 3.53 µM

Q: And the GI50 (OVCAR-4 ovarian)?
A: 1.4 µM

Q: What about the TGI (OVCAR-4 ovarian) of the same compound?
A: 2.71 µM

Q: And the GI50 (SR leukemia)?
A: 0.332 µM

Q: And the TGI (SR leukemia)?
A: 2.57 µM

Q: What about the GI50 (MALME-3M melanoma) of the same compound?
A: 1.8 µM

Q: What about the TGI (MALME-3M melanoma) of the same compound?
A: 3.76 µM

Q: And the GI50 (HCC-2998 colon)?
A: 5.21 µM

Q: And the TGI (HCC-2998 colon)?
A: 19.1 µM

Q: And the GI50 (NCI/ADR-RES ovarian)?
A: 2.99 µM

Q: What about the TGI (NCI/ADR-RES ovarian) of the same compound?
A: > 100 µM

Q: And the GI50 (IGROV1 ovarian)?
A: 2.36 µM

Q: What about the TGI (IGROV1 ovarian) of the same compound?
A: 6.34 µM

Q: And the GI50 (SF-539 CNS)?
A: 1.79 µM

Q: And the TGI (SF-539 CNS)?
A: 3.4 µM

Q: And the GI50 (SW-620 colon)?
A: 2.15 µM

Q: And the TGI (SW-620 colon)?
A: 5.32 µM

Q: And the GI50 (UACC-62 melanoma)?
A: 1.9 µM

Q: What about the TGI (UACC-62 melanoma) of the same compound?
A: 4 µM

Q: What about the GI50 (ACHN renal) of the same compound?
A: 6.28 µM

Q: And the TGI (ACHN renal)?
A: 27.5 µM

Q: And the GI50 (HL-60(TB) leukemia)?
A: 2.56 µM

Q: And the TGI (HL-60(TB) leukemia)?
A: 4.99 µM

Q: What about the GI50 (HS 578T breast) of the same compound?
A: 19 µM

Q: And the TGI (HS 578T breast)?
A: 52.8 µM

Q: And the GI50 (DU-145 prostate)?
A: 3.94 µM

Q: What about the TGI (DU-145 prostate) of the same compound?
A: 14.9 µM

Q: And the GI50 (OVCAR-8 ovarian)?
A: 2.15 µM

Q: What about the TGI (OVCAR-8 ovarian) of the same compound?
A: 4.85 µM

Q: And the GI50 (MDA-MB-231 breast)?
A: 2.39 µM

Q: And the TGI (MDA-MB-231 breast)?
A: 6.61 µM

Q: What about the GI50 (BT-549 breast) of the same compound?
A: 2.43 µM

Q: And the TGI (BT-549 breast)?
A: 6.12 µM

Q: What about the GI50 (SK-MEL-28 melanoma) of the same compound?
A: 2.22 µM

Q: And the TGI (SK-MEL-28 melanoma)?
A: 5.2 µM

Q: And the GI50 (KM12 colon)?
A: 1.75 µM

Q: And the TGI (KM12 colon)?
A: 3.93 µM

Q: And the GI50 (HOP-92 NSCLC)?
A: 18.9 µM

Q: And the TGI (HOP-92 NSCLC)?
A: 41.2 µM

Q: And the GI50 (SF-295 CNS)?
A: 1.82 µM

Q: And the TGI (SF-295 CNS)?
A: 3.88 µM

Q: What about the GI50 (A549 NSCLC) of the same compound?
A: 2.49 µM

Q: What about the TGI (A549 NSCLC) of the same compound?
A: 5.83 µM

Q: And the GI50 (HOP-62 NSCLC)?
A: 15 µM

Q: And the TGI (HOP-62 NSCLC)?
A: 30.8 µM

Q: What about the GI50 (TK-10 renal) of the same compound?
A: 1.85 µM

Q: What about the TGI (TK-10 renal) of the same compound?
A: 4.31 µM

Q: What about the GI50 (SK-MEL-2 melanoma) of the same compound?
A: 1.89 µM

Q: What about the TGI (SK-MEL-2 melanoma) of the same compound?
A: 3.85 µM

Q: And the GI50 (MDA-MB-435)?
A: 1.84 µM

Q: What about the TGI (MDA-MB-435) of the same compound?
A: 3.48 µM

Q: What about the GI50 (K-562 leukemia) of the same compound?
A: 3.03 µM

Q: What about the TGI (K-562 leukemia) of the same compound?
A: 8.52 µM

Q: And the GI50 (NCI-H226 lung)?
A: 34 µM

Q: What about the TGI (NCI-H226 lung) of the same compound?
A: > 100 µM

Q: What about the GI50 (EKVX NSCLC) of the same compound?
A: 15.7 µM

Q: And the TGI (EKVX NSCLC)?
A: 35.4 µM

Q: What about the GI50 (RXF 393 renal) of the same compound?
A: 2.16 µM

Q: What about the TGI (RXF 393 renal) of the same compound?
A: 7.58 µM

Q: And the GI50 (HCT-15 colon)?
A: 2.1 µM

Q: What about the TGI (HCT-15 colon) of the same compound?
A: 4.82 µM

Q: And the GI50 (SK-MEL-5 melanoma)?
A: 1.52 µM

Q: What about the TGI (SK-MEL-5 melanoma) of the same compound?
A: 2.86 µM

Q: What about the GI50 (SN12C renal) of the same compound?
A: 1.67 µM

Q: And the TGI (SN12C renal)?
A: 3.24 µM

Q: And the GI50 (CCRF-CEM leukemia)?
A: 3.46 µM

Q: What about the TGI (CCRF-CEM leukemia) of the same compound?
A: 13.5 µM

Q: And the GI50 (CAKI-1 renal)?
A: 2.61 µM

Q: And the TGI (CAKI-1 renal)?
A: 8.27 µM

Q: What about the GI50 (MCF7 breast) of the same compound?
A: 1.81 µM

Q: What about the TGI (MCF7 breast) of the same compound?
A: 4.39 µM

Q: And the GI50 (NCI-H522 lung)?
A: 1.81 µM

Q: And the TGI (NCI-H522 lung)?
A: 3.46 µM

Q: And the GI50 (SNB-19 CNS)?
A: 2.88 µM

Q: And the TGI (SNB-19 CNS)?
A: 10.4 µM

Q: What about the GI50 (PC-3 prostate) of the same compound?
A: 3.87 µM

Q: What about the TGI (PC-3 prostate) of the same compound?
A: 21.6 µM
